Measurements taken from ChEMBL document CHEMBL1133072, “Synthesis and biological activity of 1beta-methyl-2-[5'-isoxazoloethenylpyrrolidin-3'-ylthio]carbapenems” (2000).
Converted amounts (≈) assume the structure as drawn.

Key:
Escherichia coli [1] = assay: Minimum inhibitory concentration against Escherichia coli 055 was determined by agar dilution method using Mueller-Hinton; format: functional
Escherichia coli [2] = assay: Minimum inhibitory concentration against Escherichia coli 1507E was determined by agar dilution method using Mueller-Hinton; format: functional
Klebsiella aerogenes = assay: Minimum inhibitory concentration against Klebsiella aerogenes 1522E was determined by agar dilution method using Mueller-Hinton; format: functional
Pseudomonas aeruginosa [3] = assay: Minimum inhibitory concentration against Pseudomonas aeruginosa 1592E was determined by agar dilution method using Mueller-Hinton; format: functional
Pseudomonas aeruginosa [4] = assay: Minimum inhibitory concentration against Pseudomonas aeruginosa 1771M was determined by agar dilution method using Mueller-Hinton; format: functional
Pseudomonas aeruginosa [5] = assay: Minimum inhibitory concentration against Pseudomonas aeruginosa 9027 was determined by agar dilution method using Mueller-Hinton; format: functional
Salmonella typhimurium = assay: Minimum inhibitory concentration against Salmonella Typhimurium was determined by agar dilution method using Mueller-Hinton; format: functional, Salmonella enterica subsp. enterica serovar Typhimurium; details: Salmonella enterica
Streptococcus pyogenes = assay: Minimum inhibitory concentration against Streptococcus pyogenes 308A was determined by agar dilution method using Mueller-Hinton; format: functional
Staphylococcus aureus [6] = assay: Minimum inhibitory concentration against Staphylococcus aureus 285 was determined by agar dilution method using Mueller-Hinton; format: functional
Staphylococcus aureus [7] = assay: Minimum inhibitory concentration against Staphylococcus aureus 503 was determined by agar dilution method using Mueller-Hinton; format: functional
Staphylococcus aureus [8] = assay: Minimum inhibitory concentration against Staphylococcus aureus SG 511 was determined by agar dilution method using Mueller-Hinton; format: functional
Enterobacter cloacae = assay: Minimum inhibitory concentration against Enterobacter cloacae 1321E was determined by agar dilution method using Mueller-Hinton; format: functional
[9] = biological target: Dipeptidase 1 (Sus scrofa) (UniProt P22412); assay: Relative half life of hydrolysis to meropenem by partially purified porcine renal DHP-I was determined
Sequence of Dipeptidase 1 (Sus scrofa) (P22412 whole entry, looked up): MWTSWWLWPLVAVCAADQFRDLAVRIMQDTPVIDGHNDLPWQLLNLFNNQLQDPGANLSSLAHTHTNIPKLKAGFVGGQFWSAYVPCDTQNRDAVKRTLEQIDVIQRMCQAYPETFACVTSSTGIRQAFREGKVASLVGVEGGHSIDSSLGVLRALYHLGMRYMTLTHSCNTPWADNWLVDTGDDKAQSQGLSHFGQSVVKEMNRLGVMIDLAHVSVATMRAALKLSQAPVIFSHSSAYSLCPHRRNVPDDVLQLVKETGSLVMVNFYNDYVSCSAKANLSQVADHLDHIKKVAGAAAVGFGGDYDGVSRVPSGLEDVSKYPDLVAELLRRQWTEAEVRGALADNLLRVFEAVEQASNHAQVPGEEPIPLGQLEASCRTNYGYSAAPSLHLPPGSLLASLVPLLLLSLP

Structure (SMILES)	MIC (Escherichia coli [1])	MIC (Escherichia coli [2])	MIC (Klebsiella aerogenes)	MIC (Pseudomonas aeruginosa [3])	MIC (Pseudomonas aeruginosa [4])	MIC (Pseudomonas aeruginosa [5])	MIC (Salmonella typhimurium)	MIC (Streptococcus pyogenes)	MIC (Staphylococcus aureus [6])	MIC (Staphylococcus aureus [7])	MIC (Staphylococcus aureus [8])	MIC (Enterobacter cloacae)	Relativity [9]
C[C@@H](O)[C@H]1C(=O)N2C(C(=O)O)=C(SCCNC=N)C[C@H]12 [IMIPENEM ANHYDROUS]	0.098 µg/mL (≈ 0.327 µM)	0.195 µg/mL (≈ 0.651 µM)	0.391 µg/mL (≈ 1.31 µM)	1.56 µg/mL (≈ 5.22 µM)	0.195 µg/mL (≈ 0.651 µM)	0.781 µg/mL (≈ 2.61 µM)	0.781 µg/mL (≈ 2.61 µM)	0.007 µg/mL (≈ 0.0234 µM)	0.025 µg/mL (≈ 0.0835 µM)	0.013 µg/mL (≈ 0.0434 µM)	0.025 µg/mL (≈ 0.0835 µM)	0.195 µg/mL (≈ 0.651 µM)	0.19
COC(=O)c1cc(/C=C/[C@@H]2C[C@H](SC3=C(C(=O)O)N4C(=O)[C@H]([C@@H](C)O)[C@H]4[C@H]3C)CN2)on1	0.025 µg/mL (≈ 0.0539 µM)	0.025 µg/mL (≈ 0.0539 µM)	0.049 µg/mL (≈ 0.106 µM)	0.195 µg/mL (≈ 0.421 µM)	0.098 µg/mL (≈ 0.211 µM)	0.098 µg/mL (≈ 0.211 µM)	0.025 µg/mL (≈ 0.0539 µM)	0.007 µg/mL (≈ 0.0151 µM)	0.049 µg/mL (≈ 0.106 µM)	0.025 µg/mL (≈ 0.0539 µM)	0.049 µg/mL (≈ 0.106 µM)	0.025 µg/mL (≈ 0.0539 µM)	2.68

The next lines start with the values.

MIC (Escherichia coli [1])	MIC (Escherichia coli [2])	MIC (Klebsiella aerogenes)	MIC (Pseudomonas aeruginosa [3])	MIC (Pseudomonas aeruginosa [4])	MIC (Pseudomonas aeruginosa [5])	MIC (Salmonella typhimurium)	MIC (Streptococcus pyogenes)	MIC (Staphylococcus aureus [6])	MIC (Staphylococcus aureus [7])	MIC (Staphylococcus aureus [8])	MIC (Enterobacter cloacae)	Relativity [9]	Structure (SMILES)
0.025 µg/mL (≈ 0.0617 µM)	0.025 µg/mL (≈ 0.0617 µM)	0.049 µg/mL (≈ 0.121 µM)	0.195 µg/mL (≈ 0.481 µM)	0.195 µg/mL (≈ 0.481 µM)	0.195 µg/mL (≈ 0.481 µM)	0.049 µg/mL (≈ 0.121 µM)	0.004 µg/mL (≈ 0.00986 µM)	0.025 µg/mL (≈ 0.0617 µM)	0.013 µg/mL (≈ 0.0321 µM)	0.025 µg/mL (≈ 0.0617 µM)	0.025 µg/mL (≈ 0.0617 µM)	1.95	C[C@@H](O)[C@H]1C(=O)N2C(C(=O)O)=C(S[C@@H]3CN[C@H](/C=C/c4ccno4)C3)[C@H](C)[C@H]12
0.025 µg/mL (≈ 0.0574 µM)	0.025 µg/mL (≈ 0.0574 µM)	0.049 µg/mL (≈ 0.113 µM)	0.195 µg/mL (≈ 0.448 µM)	0.098 µg/mL (≈ 0.225 µM)	0.195 µg/mL (≈ 0.448 µM)	0.049 µg/mL (≈ 0.113 µM)	0.007 µg/mL (≈ 0.0161 µM)	0.025 µg/mL (≈ 0.0574 µM)	0.025 µg/mL (≈ 0.0574 µM)	0.025 µg/mL (≈ 0.0574 µM)	0.025 µg/mL (≈ 0.0574 µM)	2.01	C[C@@H](O)[C@H]1C(=O)N2C(C(=O)O)=C(S[C@@H]3CN[C@H](/C=C/c4cc(CO)no4)C3)[C@H](C)[C@H]12
0.391 µg/mL (≈ 0.964 µM)	1.56 µg/mL (≈ 3.85 µM)	3.12 µg/mL (≈ 7.71 µM)	25 µg/mL (≈ 61.7 µM)	3.12 µg/mL (≈ 7.71 µM)	25 µg/mL (≈ 61.7 µM)	0.391 µg/mL (≈ 0.964 µM)	< 0.002 µg/mL	0.025 µg/mL (≈ 0.0617 µM)	0.013 µg/mL (≈ 0.0321 µM)	0.013 µg/mL (≈ 0.0321 µM)	1.56 µg/mL (≈ 3.85 µM)	1.84	C[C@@H](O)[C@H]1C(=O)N2C(C(=O)O)=C(S[C@@H]3CN[C@H](/C=C\c4cnoc4)C3)[C@H](C)[C@H]12
